Results as given in patent US8859584B2, “TRPV1 antagonists” (AbbVie Inc., priority 2011, dated 2014).
Read-outs that look alike come from different tables or passages of the source.

Legend:
[1] = target: T1, human TRPV1 (Homo sapiens, UniProt Q8NER1); test: Capsaicin Activation Assay (FLIPR intracellular Ca2+, recombinant HEK293 cells); type: cell-based
T1 construct: expressed in transfected cells

[2] = target: T1, human TRPV1; test: Acid Activation Assay (pH 5.0, FLIPR intracellular Ca2+, recombinant HEK293 cells); type: cell-based; settings: percentage of maximal pH 5.0-induced response remaining; HEK293 hTRPV1; max concentration 37.5 μM
Procedure, shortened: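 HEK293 cells stably expressing recombinant hTRPV1 were loaded with calcium dye for 90-120 min at 25° C and pre-treated with compound for 3 min before a pH 5.0 (DPBS/MES) challenge. Peak FLIPR fluorescence over baseline is given as percentage of the maximal pH 5.0-induced response.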

[3] = recombinant HEK293 cells expressing hTRPV1, 50 nM capsaicin, read-out: human TRPV1 capsaicin IC50

T1 sequence (Q8NER1 whole entry): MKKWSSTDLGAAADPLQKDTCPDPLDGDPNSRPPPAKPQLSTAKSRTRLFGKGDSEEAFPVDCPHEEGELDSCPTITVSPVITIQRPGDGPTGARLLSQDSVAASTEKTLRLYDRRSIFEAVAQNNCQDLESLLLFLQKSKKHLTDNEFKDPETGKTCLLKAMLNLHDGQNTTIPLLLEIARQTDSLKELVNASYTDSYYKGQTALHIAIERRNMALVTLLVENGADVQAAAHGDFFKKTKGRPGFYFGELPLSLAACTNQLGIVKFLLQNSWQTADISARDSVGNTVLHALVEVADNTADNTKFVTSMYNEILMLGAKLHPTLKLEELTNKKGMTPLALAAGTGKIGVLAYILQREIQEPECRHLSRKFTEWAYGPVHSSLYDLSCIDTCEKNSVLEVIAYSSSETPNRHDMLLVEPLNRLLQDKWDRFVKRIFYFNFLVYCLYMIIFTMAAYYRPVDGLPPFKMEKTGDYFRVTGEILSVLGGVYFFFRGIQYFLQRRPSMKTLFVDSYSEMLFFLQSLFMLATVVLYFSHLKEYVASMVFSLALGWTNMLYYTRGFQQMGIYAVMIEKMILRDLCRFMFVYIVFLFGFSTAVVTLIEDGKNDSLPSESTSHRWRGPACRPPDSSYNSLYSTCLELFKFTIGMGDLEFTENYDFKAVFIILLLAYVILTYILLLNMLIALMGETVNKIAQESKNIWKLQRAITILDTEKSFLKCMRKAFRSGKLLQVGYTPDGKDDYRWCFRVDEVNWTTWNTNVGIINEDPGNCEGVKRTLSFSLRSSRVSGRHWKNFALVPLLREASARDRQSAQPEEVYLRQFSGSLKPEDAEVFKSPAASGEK

Row | IC50 [1, 3] | human TRPV1 H+ (max % remain) [2] | IC50 [1] | Compound
1 | 42 nM | 19% | – | O=C(Nc1ccc(F)c2c1CC(O)C2)NC1CCc2cc(C(F)(F)F)ccc21 (centres unmarked) [Example 155, 1-(7-fluoro-2-hydroxy-2,3-dihydro-1H-inden-4-yl)-3-[5-(trifluoromethyl)-2,3-dihydro-1H-inden-1-yl]urea]
2 | 760 nM | 2% | – | CC1(C)C[C@@H](NC(=O)Nc2ccc(F)c3c2C[C@H](O)C3)c2ccc(F)c(F)c2O1 [Example 153, 1-[(4R)-7,8-difluoro-2,2-dimethyl-3,4-dihydro-2H-chromen-4-yl]-3-[(2S)-7-fluoro-2-hydroxy-2,3-dihydro-1H-inden-4-yl]urea]
3 | 130 nM | 61% | – | CC1(C)C[C@@H](NC(=O)Nc2ccc(F)c3c2C[C@@H](O)C3)c2ccc(C(F)(F)F)cc2O1 [Example 160, 1-[(4R)-2,2-dimethyl-7-(trifluoromethyl)-3,4-dihydro-2H-chromen-4-yl]-3-[(2R)-7-fluoro-2-hydroxy-2,3-dihydro-1H-inden-4-yl]urea]
4 | 360 nM | 53% | – | O=C(Nc1cccc2c1C[C@H](O)C2)N[C@@H]1CC(CF)(CF)Oc2cc(F)ccc21 [Example 129, 1-[(4R)-7-fluoro-2,2-bis(fluoromethyl)-3,4-dihydro-2H-chromen-4-yl]-3-[(2R)-2-hydroxy-2,3-dihydro-1H-inden-4-yl]urea]
5 | 3100 nM | 89% | – | COc1ccc(CC2COc3ccccc3C2NC(=O)Nc2cccc3c2CC(O)C3)cc1OC (centres unmarked) [Example 109, 1-[3-(3,4-dimethoxybenzyl)-3,4-dihydro-2H-chromen-4-yl]-3-(2-hydroxy-2,3-dihydro-1H-inden-4-yl)urea]
6 | 20 nM | 69% | – | CC1(C(F)F)C[C@@H](NC(=O)Nc2cccc3c2C[C@H](O)C3)c2cc(Cl)ccc2O1 (stereo partly drawn) [Example 61, 1-[(4R)-6-chloro-2-(difluoromethyl)-2-methyl-3,4-dihydro-2H-chromen-4-yl]-3-[(2R)-2-hydroxy-2,3-dihydro-1H-inden-4-yl]urea]
7 | 27 nM | 6% | – | O=C(Nc1cccc2c1C[C@@H](O)C2)N[C@@H]1CC(CF)(CF)Oc2cc(Cl)ccc21 [Example 24, 1-[(4R)-7-chloro-2,2-bis(fluoromethyl)-3,4-dihydro-2H-chromen-4-yl]-3-[(2S)-2-hydroxy-2,3-dihydro-1H-inden-4-yl]urea]
8 | 15 nM | 72% | – | CC1(C)C[C@@H](NC(=O)Nc2cccc3c2C[C@H](O)C3)c2cccc(C(F)(F)F)c2O1 [Example 29, 1-[(4R)-2,2-dimethyl-8-(trifluoromethyl)-3,4-dihydro-2H-chromen-4-yl]-3-[(2R)-2-hydroxy-2,3-dihydro-1H-inden-4-yl]urea]
9 | 56 nM | 26% | – | O=C(Nc1cccc2c1C[C@H](O)C2)N[C@@H]1CCc2cc(OC(F)(F)F)ccc21 [Example 106, 1-[(2R)-2-hydroxy-2,3-dihydro-1H-inden-4-yl]-3-[(1R)-5-(trifluoromethoxy)-2,3-dihydro-1H-inden-1-yl]urea]
10 | 5500 nM | 3% | – | O=C(Nc1ccc(F)c2c1C[C@H](O)C2)N[C@@H]1CC(CF)(CF)Oc2c(F)cccc21 [Example 152, 1-[(4R)-8-fluoro-2,2-bis(fluoromethyl)-3,4-dihydro-2H-chromen-4-yl]-3-[(2S)-7-fluoro-2-hydroxy-2,3-dihydro-1H-inden-4-yl]urea]
11 | 56 nM | 64% | – | O=C(Nc1cccc2c1C[C@H](O)C2)N[C@@H]1CC(CF)(CF)Oc2c1ccc(Cl)c2F [Example 11, 1-[(4R)-7-chloro-8-fluoro-2,2-bis(fluoromethyl)-3,4-dihydro-2H-chromen-4-yl]-3-[(2R)-2-hydroxy-2,3-dihydro-1H-inden-4-yl]urea]
12 | 1600 nM | 46% | – | O=C(Nc1cccc2c1C[C@@H](O)C2)N[C@@H]1CC(CF)(CF)Oc2ccccc21 [Example 86, 1-[(4R)-2,2-bis(fluoromethyl)-3,4-dihydro-2H-chromen-4-yl]-3-[(2S)-2-hydroxy-2,3-dihydro-1H-inden-4-yl]urea]
13 | 270 nM | 73% | – | O=C(Nc1cccc2c1C[C@H](O)C2)N[C@@H]1CCOc2cc(F)ccc21 [Example 65, 1-[(4R)-7-fluoro-3,4-dihydro-2H-chromen-4-yl]-3-[(2R)-2-hydroxy-2,3-dihydro-1H-inden-4-yl]urea]
14 | 540 nM | 2% | – | CC1(C)C[C@@H](NC(=O)Nc2ccc(F)c3c2C[C@H](O)C3)c2ccc(Cl)cc2O1 [Example 149, 1-[(4R)-7-chloro-2,2-dimethyl-3,4-dihydro-2H-chromen-4-yl]-3-[(2S)-7-fluoro-2-hydroxy-2,3-dihydro-1H-inden-4-yl]urea]
15 | 27 nM | 55% | – | CC1(C)C[C@@H](NC(=O)Nc2cccc3c2C[C@H](O)C3)c2ccc(C(F)(F)F)cc2O1 [Example 3, 1-[(4R)-2,2-dimethyl-7-(trifluoromethyl)-3,4-dihydro-2H-chromen-4-yl]-3-[(2R)-2-hydroxy-2,3-dihydro-1H-inden-4-yl]urea]

The remaining lines, values behind:

Row | Compound | IC50 [1, 3] | human TRPV1 H+ (max % remain) [2] | IC50 [1]
16 | O=C(Nc1cccc2c1C[C@@H](O)C2)N[C@@H]1CC(CF)(CF)Oc2c1ccc(Cl)c2F [Example 81, 1-[(4R)-7-chloro-8-fluoro-2,2-bis(fluoromethyl)-3,4-dihydro-2H-chromen-4-yl]-3-[(2S)-2-hydroxy-2,3-dihydro-1H-inden-4-yl]urea] | 59 nM | 11% | –
17 | O=C(Nc1c(F)ccc2c1C[C@@H](O)C2)N[C@@H]1CC(CF)(CF)Oc2cc(C(F)(F)F)ccc21 [Example 95, 1-[(4R)-2,2-bis(fluoromethyl)-7-(trifluoromethyl)-3,4-dihydro-2H-chromen-4-yl]-3-[(2S)-5-fluoro-2-hydroxy-2,3-dihydro-1H-inden-4-yl]urea] | 170 nM | 46% | –
18 | O=C(Nc1ccc(F)c2c1C[C@H](O)C2)N[C@@H]1CC(CF)(CF)Oc2cc(Cl)ccc21 [Example 134, 1-[(4R)-7-chloro-2,2-bis(fluoromethyl)-3,4-dihydro-2H-chromen-4-yl]-3-[(2S)-7-fluoro-2-hydroxy-2,3-dihydro-1H-inden-4-yl]urea] | – | 3% | 349 nM
19 | O=C(Nc1cccc2c1CC(O)C2)NC1c2ccccc2OCC1Cc1ccccc1 (centres unmarked) [Example 111, 1-(3-benzyl-3,4-dihydro-2H-chromen-4-yl)-3-(2-hydroxy-2,3-dihydro-1H-inden-4-yl)urea] | 2200 nM | 94% | –
20 | O=C(Nc1ccc(F)c2c1C[C@H](O)C2)N[C@@H]1CC(CF)(CF)Oc2cc(OC(F)(F)F)ccc21 [Example 139, 1-[(4R)-2,2-bis(fluoromethyl)-7-(trifluoromethoxy)-3,4-dihydro-2H-chromen-4-yl]-3-[(2S)-7-fluoro-2-hydroxy-2,3-dihydro-1H-inden-4-yl]urea] | 370 nM | 2% | –
21 | O=C(Nc1cccc2c1C[C@H](O)C2)N[C@H]1CC2(CCC2)Oc2ccc(F)cc21 [Example 101, 1-[(4S)-6-fluoro-3,4-dihydrospiro[chromene-2,1′-cyclobutan]-4-yl]-3-[(2R)-2-hydroxy-2,3-dihydro-1H-inden-4-yl]urea] | 1200 nM | 90% | –
22 | Cc1c(F)ccc2c1OC(C)(C)C[C@H]2NC(=O)Nc1cccc2c1C[C@H](O)C2 [Example 62, 1-[(4R)-7-fluoro-2,2,8-trimethyl-3,4-dihydro-2H-chromen-4-yl]-3-[(2R)-2-hydroxy-2,3-dihydro-1H-inden-4-yl]urea] | 20 nM | 86% | –
23 | O=C(Nc1ccc(F)c2c1C[C@@H](O)C2)N[C@@H]1CC(CF)(CF)Oc2cc(OC(F)(F)F)ccc21 [Example 159, 1-[(4R)-2,2-bis(fluoromethyl)-7-(trifluoromethoxy)-3,4-dihydro-2H-chromen-4-yl]-3-[(2R)-7-fluoro-2-hydroxy-2,3-dihydro-1H-inden-4-yl]urea] | 420 nM | 36% | –
24 | O=C(Nc1cccc2c1C[C@H](O)C2)N[C@@H]1CCOc2c(OC(F)(F)F)cccc21 [Example 6, 1-[(2R)-2-hydroxy-2,3-dihydro-1H-inden-4-yl]-3-[(4R)-8-(trifluoromethoxy)-3,4-dihydro-2H-chromen-4-yl]urea] | 16 nM | 67% | –
25 | O=C(Nc1cccc2c1C[C@H](O)C2)N[C@@H]1CC2(CCC2)Oc2ccc(F)cc21 [Example 8, 1-[(4R)-6-fluoro-3,4-dihydrospiro[chromene-2,1′-cyclobutan]-4-yl]-3-[(2R)-2-hydroxy-2,3-dihydro-1H-inden-4-yl]urea] | 35 nM | 50% | –
26 | CC1(C)C[C@@H](NC(=O)Nc2cccc3c2C[C@@H](O)C3)c2cccc(C(F)(F)F)c2O1 [Example 34, 1-[(4R)-2,2-dimethyl-8-(trifluoromethyl)-3,4-dihydro-2H-chromen-4-yl]-3-[(2S)-2-hydroxy-2,3-dihydro-1H-inden-4-yl]urea] | 12 nM | 18% | –
27 | O=C(Nc1cccc2c1C[C@@H](O)C2)N[C@H]1CC2(CCC2)Oc2ccc(F)cc21 [Example 102, 1-[(4S)-6-fluoro-3,4-dihydrospiro[chromene-2,1′-cyclobutan]-4-yl]-3-[(2S)-2-hydroxy-2,3-dihydro-1H-inden-4-yl]urea] | 2800 nM | 63% | –
28 | O=C(Nc1cccc2c1C[C@@H](O)C2)N[C@@H]1CC(CF)(CF)Oc2ccc(F)cc21 [Example 78, 1-[(4R)-6-fluoro-2,2-bis(fluoromethyl)-3,4-dihydro-2H-chromen-4-yl]-3-[(2S)-2-hydroxy-2,3-dihydro-1H-inden-4-yl]urea] | 1400 nM | 12% | –
